Here are results for 1 compound from ChEMBL document CHEMBL1201862, “PubChem BioAssay data set” (2004).

Holding throughout (assay): growth of human tumour cells (NCI), 48 h
Experiment [1] concerns CAKI-1.
The test system of experiment [2] is CCRF-CEM.
Experiment [3] relates to COLO 205.
For experiment [4], the system named is DLD-1.
The subject of experiment [5] is HCT-15.
Experiment [6] concerns HL-60.
Experiment [7] concerns HOP-62.
Experiment [8] has as its system K562.
The subject of experiment [9] is KM12.
The test system of experiment [10] is LXFL 529.
Experiment [11] relates to NCI-H226.
For experiment [12], the system named is NCI-H460.
For experiment [13], the system named is NCI-H522.
Experiment [14] relates to OVCAR-5.
The subject of experiment [15] is SF-295.
Experiment [16] relates to SK-MEL-2.
The test system of experiment [17] is SN12C.
Experiment [18] concerns SW-620.
The test system of experiment [19] is UACC-62.
The subject of experiment [20] is UO-31.

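Method: 48-hour compound exposure of cells in 96-well plates, five concentrations, linear interpolation of endpoints. GI50: concentration for 50% inhibition of growth.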 Active and inactive are the calls of the source. No stated cut-off is given here; in the data, active = GI50 up to about 1.1 µM and inactive = higher. Some results are limits rather than exact numbers.

Regarding `Cn1nc2ccc3nccc(NCCNCCCl)c3c2n1`, the GI50 in experiment [1] was > 10 µM (inactive); in [2], > 100 µM (inactive); in [3] it was > 100 µM (inactive); in experiment [4], > 100 µM (inactive); in experiment [5], more than 100 µM; in [6], > 100 µM (inactive). Besides, the GI50 in [7], in experiment [8], in [9], in experiment [10], in experiment [11] and in [12] was > 100 µM (inactive) each time. The GI50 in [13], in experiment [14], in experiment [15], in experiment [16], in [17] and in experiment [18] was > 100 µM (inactive) in each case. The GI50 in experiment [19] and in experiment [20] was > 100 µM (inactive) in each case.
